Test results published in ChEMBL document CHEMBL1121959, “Probes of the active site of norepinephrine N-methyltransferase: effect of hydrophobic and hydrophilic interactions on side-chain binding of amphetamine and alpha-methylbenzylamine” (J Med Chem, 1982).
pKi: −log10 of the molar value.

Target: T1, Phenylethanolamine N-methyltransferase (Bos taurus, UniProt P10938)
T1 sequence (P10938 whole entry): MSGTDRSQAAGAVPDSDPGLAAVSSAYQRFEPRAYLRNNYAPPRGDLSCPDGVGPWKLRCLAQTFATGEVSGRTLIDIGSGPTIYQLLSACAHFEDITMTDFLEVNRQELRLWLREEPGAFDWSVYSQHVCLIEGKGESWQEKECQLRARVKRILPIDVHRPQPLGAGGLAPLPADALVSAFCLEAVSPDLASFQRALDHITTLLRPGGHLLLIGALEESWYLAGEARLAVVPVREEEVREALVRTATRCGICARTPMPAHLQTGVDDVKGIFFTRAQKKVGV
Assay: Inhibitory activity against bovine adrenal norepinephrine N-methyl-transferase was determined

Row | SMILES | pKi
1 | N[C@@H](CO)CC1CCCCC1 | 4.48
2 | CCC(N)Cc1ccccc1 (stereo not given) | < 3.00
3 | NC(Cc1ccccc1)Cc1ccccc1 | < 3.00
4 | CCCC(N)c1ccccc1 (stereo not given) | < 3.00
5 | C[C@@H](N)Cc1ccccc1 [LEVAMFETAMINE] | 2.86
6 | NC(CC1CCCCC1)c1ccccc1 (stereo not given) | < 3.00
7 | NC(CO)CC1CCCCC1 (racemic) | 4.33
8 | NC(CO)Cc1ccccc1 (racemic) | 3.41
9 | NC(CO)c1ccccc1 (racemic) | 2.91
10 | C[C@H](N)Cc1ccccc1 [DEXTROAMPHETAMINE] | 3.35
11 | N[C@H](CO)Cc1ccccc1 [L-PHENYLALANINOL] | 3.18
12 | N[C@@H](CO)c1ccccc1 | 4.06
13 | N[C@H](CO)CC1CCCCC1 | 3.90
14 | CCCC(N)Cc1ccccc1 (stereo not given) | < 3.00
15 | N[C@@H](CO)Cc1ccccc1 | 3.42
